Where “and” joins values, the source holds several entries; their conditions need not be identical. Equal entries are not always repeated. Inconclusive results and toxic doses are left out. Rule for the calls: active = survival T/C of 150% or more; inactive = T/C below 125% in these data.
Test system: BDF1 mice, P815 leukemia ip, survival T/C
Assay: NCI In Vivo Anticancer Drug Screen. Data for tumor model P815 Mast Cell Leukemia (Ascitic) (intraperitoneal) in B6D2F1 (BDF1) mice
Conditions: endpoint: survival time, mean or median, higher = longer survival
Procedure: The antitumor activity of compounds was measured in mice bearing transplantable tumors. Survival or tumor size were measured and the results are expressed as the measurement made in the treated group (T) divided by the measurement made in the vehicle treated control group (C). The tumor model used in this assay is P815 Mast Cell Leukemia (Ascitic) (intraperitoneal) in B6D2F1 (BDF1) mice

[1] = dose: 5.0 mg/kg/injection, schedule: Q01DX010 (ip), vehicle: saline
[2] = dose: 10.0 mg/kg/injection, schedule: Q01DX010 (ip), vehicle: saline
[3] = dose: 20.0 mg/kg/injection, schedule: Q01DX010 (ip), vehicle: saline
[4] = dose: 40.0 mg/kg/injection, schedule: Q01DX010 (ip), vehicle: saline
[5] = dose: 62.5 mg/kg/injection, schedule: Q01DX010 (ip), vehicle: saline
[6] = dose: 125.0 mg/kg/injection, schedule: Q01DX010 (ip), vehicle: saline
[7] = dose: 250.0 mg/kg/injection, schedule: Q01DX010 (ip), vehicle: saline

Measured: T/C

C[C@@H]1C[C@@H]([C@H](O)CC2CC(=O)NC(=O)C2)C(=O)[C@@H](C)C1
inactive: [1] 109 % of control and 118 % of control | [2] 104 % of control and 109 % of control | [3] 109 % of control and 118 % of control | [4] 118 % of control

CCCSc1ncnc2nc[nH]c12
inactive: dose: 31.3 mg/kg/injection, schedule: Q01DX010 (ip), vehicle: saline 100 % of control and 111 % of control | [5] 111 % of control | [6] 111 % of control and 122 % of control

O=CCC(O)C(O)C(O)CO (stereo unspecified)
inactive: [5] 94 % of control and 97 % of control | [6] 97 % of control and 105 % of control | [7] 105 % of control and 107 % of control | dose: 500.0 mg/kg/injection, schedule: Q01DX010 (ip), vehicle: saline 102 % of control

COc1ccc(C[n+]2cc([O-])on2)cc1
inactive: dose: 12.5 mg/kg/injection, schedule: Q01DX015 (ip), vehicle: carboxymethylcellulose (CMC) 111 % of control | dose: 25.0 mg/kg/injection, schedule: Q01DX015 (ip), vehicle: carboxymethylcellulose (CMC) 114 % of control | dose: 100.0 mg/kg/injection, schedule: Q01DX015 (ip), vehicle: carboxymethylcellulose (CMC) 107 % of control

O=c1[nH]c(=O)n(C2CC(O)C(CO)O2)cc1F (stereo unspecified)
inactive: [1] 100 % of control | [2] 100 % of control and 105 % of control | [3] 111 % of control and 116 % of control | [4] 111 % of control

COc1cc([C@@H]2c3cc4c(cc3[C@H](O)[C@H]3COC(=O)[C@@H]23)OCO4)cc(OC)c1OC
inactive: dose: 10.0 mg/kg/injection, schedule: Q01DX015 (ip), vehicle: carboxymethylcellulose (CMC) 112 % of control
active: dose: 20.0 mg/kg/injection, schedule: Q01DX015 (ip), vehicle: carboxymethylcellulose (CMC) 150 % of control | dose: 40.0 mg/kg/injection, schedule: Q01DX015 (ip), vehicle: carboxymethylcellulose (CMC) 167 % of control

O=C(Nc1ccc(C2=NCCN2)cc1)c1ccc(C(=O)Nc2ccc(C3=NCCN3)cc2)cc1
active: dose: 75.0 mg/kg/injection, schedule: Q01DX010 (ip), vehicle: saline 158 % of control | dose: 112.0 mg/kg/injection, schedule: Q01DX010 (ip), vehicle: saline 175 % of control | dose: 167.0 mg/kg/injection, schedule: Q01DX010 (ip), vehicle: saline 175 % of control
inactive: [7] 108 % of control

CC1CN=C(c2ccc(NC(=O)c3ccc(C(=O)Nc4ccc(C5=NCC(C)N5)cc4)cc3)cc2)N1 (stereo unspecified)
active: [2] 165 % of control | dose: 15.0 mg/kg/injection, schedule: Q01DX010 (ip), vehicle: saline 156 % of control | dose: 22.0 mg/kg/injection, schedule: Q01DX010 (ip), vehicle: saline 182 % of control | dose: 33.0 mg/kg/injection, schedule: Q01DX010 (ip), vehicle: saline 186 % of control

Nc1nc(F)nc2c1ncn2C1OC(CO)C(O)C1O (stereo unspecified)
inactive: dose: 0.5 mg/kg/injection, schedule: Q01DX010 (ip), vehicle: saline 100 % of control | dose: 0.75 mg/kg/injection, schedule: Q01DX015 (ip), vehicle: saline 99 % of control | dose: 1.0 mg/kg/injection, schedule: Q01DX010 (ip), vehicle: saline 100 % of control and 112 % of control | dose: 1.5 mg/kg/injection, schedule: Q01DX015 (ip), vehicle: saline 98 % of control | dose: 2.0 mg/kg/injection, schedule: Q01DX010 (ip), vehicle: saline 100 % of control and 112 % of control | dose: 4.0 mg/kg/injection, schedule: Q01DX010 (ip), vehicle: saline 100 % of control and 112 % of control | dose: 8.0 mg/kg/injection, schedule: Q01DX010 (ip), vehicle: saline 88 % of control

Cc1c(O)ccc(=O)n1O
inactive: dose: 49.0 mg/kg/injection, schedule: Q01DX015 (ip), vehicle: other 95 % of control | dose: 73.0 mg/kg/injection, schedule: Q01DX015 (ip), vehicle: other 113 % of control | dose: 110.0 mg/kg/injection, schedule: Q01DX015 (ip), vehicle: other 105 % of control | dose: 165.0 mg/kg/injection, schedule: Q01DX015 (ip), vehicle: other 100 % of control | dose: 247.0 mg/kg/injection, schedule: Q01DX015 (ip), vehicle: other 95 % of control

Reference: PubChem BioAssay AID318 (DTP/NCI, 2004)
